The values below are quoted from earlier work in patent US20130164233A1, “SKIN-WHITENING ESSENCE COMPOSITION CONTAINING TYROSINASE INHIBITOR” (priority 2011, published 2013).

The series deals with skin. Conditions: conventionally.

Turning to `NC[C@H]1CC[C@H](C(=O)O)CC1` [tranexamic acid], the “Concentration needed to give whitening effect” value was “higher than 3%”.
